# Reference: patent US20100137313A1 (ASTRAZENECA AB, priority 2008, published 2010)
# Target: S. pneumoniae Topoisomerase IV ATPase (ParE) (Streptococcus pneumoniae serotype 4, UniProt Q59961)
# Assay: S. pneumoniae Topoisomerase IV ATPase inhibition
# Format: biochemical
# Settings: values marked * are an average of two or more data points, read-out: % Inh (13 μM) of S. pneumoniae Topoisomerase IV ATPase
# In short: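 ParE ATPase (1.25 nM) run with 160 μM ATP and 5 μg/ml sheared salmon sperm DNA in Tris pH 8.0, Mg2+, glycerol, DTT, Brij-35. Phosphate released read by malachite green/molybdate absorbance at 650 nm. IC50 from 10 compound concentrations; DMSO (2%) as 0% and EDTA (20 μM) as 100% inhibition.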
# Sequence of S. pneumoniae Topoisomerase IV ATPase (ParE) (Q59961 whole entry): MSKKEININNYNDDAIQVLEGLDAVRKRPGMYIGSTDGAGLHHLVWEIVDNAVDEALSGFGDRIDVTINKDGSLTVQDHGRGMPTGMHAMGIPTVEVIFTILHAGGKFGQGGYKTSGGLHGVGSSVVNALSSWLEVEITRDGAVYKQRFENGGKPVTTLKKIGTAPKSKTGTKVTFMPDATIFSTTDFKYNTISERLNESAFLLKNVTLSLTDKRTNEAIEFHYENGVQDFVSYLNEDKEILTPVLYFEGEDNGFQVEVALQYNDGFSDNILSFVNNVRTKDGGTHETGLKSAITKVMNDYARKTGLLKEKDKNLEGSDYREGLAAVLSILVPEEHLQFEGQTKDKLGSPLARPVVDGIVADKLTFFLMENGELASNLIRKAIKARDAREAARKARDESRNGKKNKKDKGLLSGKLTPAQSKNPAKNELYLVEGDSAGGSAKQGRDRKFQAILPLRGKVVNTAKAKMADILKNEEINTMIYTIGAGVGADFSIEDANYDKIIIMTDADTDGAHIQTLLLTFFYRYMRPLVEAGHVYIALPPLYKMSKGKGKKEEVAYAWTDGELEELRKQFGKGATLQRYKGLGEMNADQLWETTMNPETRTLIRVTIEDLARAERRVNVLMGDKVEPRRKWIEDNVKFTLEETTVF
row,SMILES,inhibition at 13 µM
1,"Fc1ccc(Nc2ncc(-c3cncnc3)c(-n3ccc(C(F)(F)F)n3)n2)cc1Cl [Example 71, N-(3-chloro-4-fluorophenyl)-4-[3-(trifluoromethyl)-1H-pyrazol-1-yl]-5,5′-bipyrimidin-2-amine]",66.7%
2,"COCCCNc1nc(Nc2ccc(F)c(Cl)c2)ncc1-c1nc(-c2ccc(C#N)cc2)cs1 [Example 498, 4-(2-{2-[(3-chloro-4-fluorophenyl)amino]-4-[(3-methoxypropyl)amino]pyrimidin-5-yl}-1,3-thiazol-4-yl)benzonitrile]",41%
3,"COc1cc(C)cc(Nc2ncc(-c3cnc(OC)c(C(=O)O)c3)c(-n3nc(C(F)(F)F)cc3C)n2)c1 [Example 761, 2-methoxy-5-{2-[(3-methoxy-5-methylphenyl)amino]-4-[5-methyl-3-(trifluoromethyl)-1H-pyrazol-1-yl]pyrimidin-5-yl}pyridine-3-carboxylic acid]",100%
4,"COc1cc(Nc2ncc(-c3cnc(OC)c(C#N)c3)c(-n3nc(C(F)(F)F)cc3C)n2)cc(OC)c1 [Example 868, 5-(2-(3,5-dimethoxyphenylamino)-4-(5-methyl-3-(trifluoromethyl)-1H-pyrazol-1-yl)pyrimidin-5-yl)-2-methoxynicotinonitrile]",6%
5,"CCCS(=O)(=O)NC(=O)c1cc(-c2cnc(Nc3cc(OC)cc(OC)c3)nc2-n2nc(C(F)(F)F)cc2C)cnc1OC [Example 817, 5-{2-[(3,5-dimethoxyphenyl)amino]-4-[5-methyl-3-(trifluoromethyl)-1H-pyrazol-1-yl]pyrimidin-5-yl}-2-methoxy-N-(propylsulfonyl)pyridine-3-carboxamide]",100%
6,"COc1ncc(-c2cnc(Nc3cc(C)cc(C#N)c3)nc2-n2nc(C(F)(F)F)cc2C)cc1C(=O)O [Example 781, 5-{2-[(3-cyano-5-methylphenyl)amino]-4-[5-methyl-3-(trifluoromethyl)-1H-pyrazol-1-yl]pyrimidin-5-yl}-2-methoxypyridine-3-carboxylic acid]",99%
7,"CN(C)CCCNc1nc(Nc2ccc(F)c(Cl)c2)ncc1-c1ccc(C(=O)N(C)C)cc1 [Example 364, 4-(2-(3-chloro-4-fluorophenylamino)-4-(3-(dimethylamino)propylamino)pyrimidin-5-yl)-N,N-dimethylbenzamide]",112%
8,"COC1CCN(c2nc(Nc3ccc(F)c(Cl)c3)ncc2-c2cncnc2)CC1 [Example 65, N-(3-chloro-4-fluorophenyl)-4-(4-methoxypiperidin-1-yl)-5-pyrimidin-5-ylpyrimidin-2-amine]",75.9%
9,"Cc1cc(C(F)(F)F)nn1-c1nc(Nc2cccc(S(C)(=O)=O)c2)ncc1-c1cccc(/C=C/C(=O)O)c1 [Example 624, (2E)-3-[3-(2-{[3-(methylsulfonyl)phenyl]amino}-4-[5-methyl-3-(trifluoromethyl)-1H-pyrazol-1-yl]pyrimidin-5-yl)phenyl]prop-2-enoic acid]",89%
10,"Cc1cc(C(F)(F)F)nn1-c1nc(Nc2ccc(F)c(Cl)c2)ncc1-c1cc(C(=O)O)c(=O)n(CCS(C)(=O)=O)c1 [Example 1093, 5-(2-(3-Chloro-4-fluorophenylamino)-4-(5-methyl-3-(trifluoromethyl)-1H-pyrazol-1-yl)pyrimidin-5-yl)-1-(2-(methylsulfonyl)ethyl)-2-oxo-1,2-dihydropyridine-3-carboxylic acid]",100%
11,"COc1cc(F)cc(Nc2ncc(-c3cccc(/C=C/C(=O)O)c3)c(N3CCOCC3)n2)c1 [Example 410, (E)-3-{3-[2-(3-Fluoro-5-methoxy-phenylamino)-4-morpholin-4-yl-pyrimidin-5-yl]-phenyl}-acrylic acid]",100%
12,"CC(=O)Nc1ccn(-c2nc(Nc3ccc(F)c(Cl)c3)ncc2-c2cncc(C(N)=O)c2)n1 [Example 541, 5-{4-[3-(acetylamino)-1H-pyrazol-1-yl]-2-[(3-chloro-4-fluorophenyl)amino]pyrimidin-5-yl}pyridine-3-carboxamide]",97%
13,"CN1CCN(CCNc2nc(Nc3ccc(F)c(Cl)c3)ncc2-c2cncc(C(=O)O)c2)CC1 [Example 263, 5-(2-[(3-chloro-4-fluorophenyl)amino]-4-{[2-(4-methylpiperazin-1-yl)ethyl]amino}pyrimidin-5-yl)pyridine-3-carboxylate acid]",86.2%
14,"COc1ncc(-c2cnc(Nc3cc(C)cc(Cl)c3)nc2-n2nc(C(F)(F)F)cc2C)cc1C(=O)NS(C)(=O)=O [Example 803, 5-{2-[(3-chloro-5-methylphenyl)amino]-4-[5-methyl-3-(trifluoromethyl)-1H-pyrazol-1-yl]pyrimidin-5-yl}-2-methoxy-N-(methylsulfonyl)pyridine-3-carboxamide]",100%
15,"CCn1cc(-c2cnc(Nc3ccc(F)c(Cl)c3)nc2-n2nc(C(F)(F)F)cc2C)cc(C(=O)O)c1=O [Example 1086, 5-(2-(3-Chloro-4-fluorophenylamino)-4-(5-methyl-3-(trifluoromethyl)-1H-pyrazol-1-yl)pyrimidin-5-yl)-1-ethyl-2-oxo-1,2-dihydropyridine-3-carboxylic acid]",92%
16,"CCOC(=O)c1cncc(-c2cnc(Nc3ccc(F)c(Cl)c3)nc2NCC2CCCO2)c1 (stereo not drawn) [Example 108, ethyl 5-[2-[(3-chloro-4-fluorophenyl)amino]-4-(oxolan-2-ylmethylamino)pyrimidin-5-yl]pyridine-3-carboxylate]",-18.1%
17,"CCOC(=O)c1cncc(-c2cnc(Nc3ccc(F)c(Cl)c3)nc2NCc2cccnc2)c1 [Example 96, 5-{2-(3-Chloro-4-fluoro-phenylamino)-4-[(pyridin-3-ylmethyl)-amino]-pyrimidin-5-yl}-nicotinic acid ethyl ester]",62.2%
18,"O=C(O)/C=C/c1cccc(-c2cnc(Nc3ccc(F)c(Cl)c3)nc2-n2nccn2)c1 [Example 324, (2E)-3-(3-{2-[(3-chloro-4-fluorophenyl)amino]-4-(2H-1,2,3-triazol-2-yl)pyrimidin-5-yl}phenyl)prop-2-enoic acid]",76.9%
19,"COc1cc(Nc2ncc(-c3cccc(/C=C/C(=O)O)c3)c(-n3ccc(C(F)(F)F)n3)n2)cc(S(C)(=O)=O)c1 [Example 659, (2E)-3-[3-(2-{[3-methoxy-5-(methylsulfonyl)phenyl]amino}-4-[3-(trifluoromethyl)-1H-pyrazol-1-yl]pyrimidin-5-yl)phenyl]prop-2-enoic acid]",100%
20,"COc1cc(Nc2ncc(-c3cnc(OC)c(C(=O)NS(=O)(=O)CS(C)(=O)=O)c3)c(-n3nc(C(F)(F)F)cc3C)n2)cc(OC)c1 [Example 838, 5-{2-[(3,5-dimethoxyphenyl)amino]-4-[5-methyl-3-(trifluoromethyl)-1H-pyrazol-1-yl]pyrimidin-5-yl}-2-methoxy-N-{[(methylsulfonyl)methyl]sulfonyl}pyridine-3-carboxamide]",99%
21,"O=C(O)COc1cccc(-c2cnc(Nc3ccc(F)c(Cl)c3)nc2N2CCOCC2)c1 [Example 488, (3-{2-[(3-chloro-4-fluorophenyl)amino]-4-(morpholin-4-yl)pyrimidin-5-yl}phenoxy)acetic acid]",92%
22,"CCOC(=O)c1cncc(-c2cnc(Nc3ccc(F)c(Cl)c3)nc2NCCN2CCS(=O)(=O)CC2)c1 [Example 104, 5-{2-(3-Chloro-4-fluoro-phenylamino)-4-[2-(1,1-dioxo-1λ^6-thiomorpholin-4-yl)-ethylamino]-pyrimidin-5-yl}-nicotinic acid ethyl ester]",76.2%
23,"COCCCNc1nc(Nc2ccc(F)c(Cl)c2)ncc1-c1ccc(C(=O)O)s1 [Example 178, 5-(2-(3-chloro-4-fluorophenylamino)-4-(3-methoxypropylamino)-pyrimidin-5-yl)thiophene-2-carboxylic acid]",83%
24,"N#Cc1cc(-c2cnc(Nc3ccc(F)c(Cl)c3)nc2-n2ccc(C(F)(F)F)n2)ccn1 [Example 890, 4-(2-(3-chloro-4-fluorophenylamino)-4-(3-(trifluoromethyl)-1H-pyrazol-1-yl)pyrimidin-5-yl)picolinonitrile]",91%
25,"O=C(O)C1CCCCN1c1cccc(-c2cnc(Nc3ccc(F)c(Cl)c3)nc2-n2ccc(C(F)(F)F)n2)c1 (stereo not drawn) [Example 602, 1-(3-{2-[(3-chloro-4-fluorophenyl)amino]-4-[3-(trifluoromethyl)-1H-pyrazol-1-yl]pyrimidin-5-yl}phenyl)piperidine-2-carboxylic acid]",100%
26,"CCOC(=O)c1cncc(-c2cnc(Nc3ccc(F)c(Cl)c3)nc2N2CCC(F)CC2)c1 [Example 121, ethyl 5-[2-[(3-chloro-4-fluorophenyl)amino]-4-(4-fluoropiperidin-1-yl)pyrimidin-5-yl]pyridine-3-carboxylate]",49.6%
27,"O=C(O)/C=C/c1cccc(-c2cnc(Nc3ccc(F)c(Cl)c3)nc2N[C@@H]2CCOC2)c1 [Example 295, (R,E)-3-(3-(2-(3-chloro-4-fluorophenylamino)-4-(tetrahydrofuran-3-ylamino)pyrimidin-5-yl)phenyl)acrylic acid]",82.7%
28,"COCCn1cc(C(=O)O)c(=O)c2cc(-c3cnc(Nc4ccc(F)c(Cl)c4)nc3NCCCN(C)C)ccc21 [Example 1057, 6-(2-(3-Chloro-4-fluorophenylamino)-4-(3-(dimethylamino)propylamino)pyrimidin-5-yl)-1-(2-methoxyethyl)-4-oxo-1,4-dihydroquinoline-3-carboxylic acid]",83%
29,"CCOC(=O)c1cncc(-c2cnc(Nc3ccc(F)c(Cl)c3)nc2N2CCN(C)CC2)c1 [Example 151, ethyl 5-(2-(3-chloro-4-fluorophenylamino)-4-(4-methylpiperazin-1-yl)pyrimidin-5-yl)nicotinate]",50.1%
30,"COc1cc(Cl)c(C)cc1Nc1ncc(-c2ccc(C(=O)O)s2)c(NCCCN(C)C)n1 [Example 342, 5-(2-(4-chloro-2-methoxy-5-methylphenylamino)-4-(3-(dimethylamino)propylamino)pyrimidin-5-yl) thiophene-2-carboxylic acid]",77%
